# Results reported in patent publication US5068248A, “N-alkenyl-3-hydroxybenzo[b]thiophene-2-carboxamide derivatives as dual cyclooxygenase and lipoxygenase inhibitors” (Merck & Co., Inc., priority 1989, dated 1991).
# Where two headings read alike, the source gives them in different places.
# Assays:
# PAF-induced hyperalgesia = assay: Platelet Activating Factor (PAF) Induced Hyperalgesia in the Rat; type: in vivo, female Sprague-Dawley rats; details: for responders at 30 mg/kg: Rattus norvegicus, read-out: % Rats Exhibiting Analgesia; for Effect in PAF-induced hyperalgesia assay: p.o.; for Vocalization Threshold: mean in inflamed paw 3 hr after PAF; for % Analgesia: percentage of animals with V.T. greater than 200% of vehicle-treated controls
# Protocol: 1. Platelet Activating Factor. Induced Hyperalgesia in the Rat.
# Groups of 10 female Sprague-Dawley rats, 35-50 g (Taconic Farms), were fasted overnight prior to testing. Hyperalgesia was induced in the rat by the subplantar injection of 1 ug PAF in physiological saline. Pain threshold was measured by applying pressure to the plantar surface of the hindpaw by means of a compressed air driven piston with a 2 mm tip. Vocalization thresholds were obtained 3 hr after injection of the PAF. Compounds, prepared at various doses in 1% methylcellulose suspension, were administered perorally 30 min before PAF. For each drug treatment group, animals with response pressures in the inflamed paw of 200% of control was considered to be analgesic. The mean vocalization threshold for each group was also calculated.
# PBQ-induced writhing = assay: Phenylbenzoquinone (PBQ)-induced writhing in the Mouse; type: in vivo, female mice (CD-1); details: for ED50: Mus musculus, po; for % Inhibition: writhing
# Protocol: 2. PHENYLBENZOQUINONE (PBQ)-induced writhing in the Mouse […] Groups of 10 female mice (CD-1, Charles River Breeding Laboratories), weighing 20-25 g were fasted overnight prior to experiments. […] The number of writhes for each animal was recorded and the group means and standard errors were calculated. The means obtained from the drug treated groups were compared to the vehicle control means values and percent inhibition of writhing was calculated. ED50 values were calculated by regression analysis.
# [1] = test system: indomethacin-induced gastric lesions; type: in vivo, Male Sprague-Dawley rats; details: for No. Gastric Lesions: Mean + S.E.M.
# Protocol: Male Sprague-Dawley rats, 130-150 g each, were sorted into groups for assay. The rats were fasted for 24 hours.
# Several hours after the administration of compound A, the animals are sacrificed, the stomachs removed, excises along the inner curvature, washed carefully with cool tap water and placed in 0.9% saline. When all groups have been processed, the mucosal region of the stomachs are examined under a magnifying lens and scored according to the total number of lesions present. Group scores represent the mean score of animals in that group. The effect of Compound A on indomethacin-induced gastric lesions is shown below in Table 6: […]
# [2] = test system: adjuvant-induced arthritis (Mycobacterium butyricum); assay: Developing Adjuvant-Induced Arthritis Assay in the Lewis Rat; type: in vivo, Female Lewis rats; design: Foot Swelling-Day 14: unit not given here; details: for Adrenal Weight / Change Body Weight 0-21 days / Foot Swelling-Day 21 / Thymus Weight / Foot Swelling-Day 14: mean ± SEM; for Bone/Cartilage Destruction Score: score 0-3, 0 = 0 destruction, 3 = Maximum destruction; for Protection from bone/cartilage (hard tissue) destruction, X-ray: day 21, hindpaw joints, Compound A 3.0 and 10 mg/kg/day, Indomethacin 1 mg/kg/day
# Protocol: 3. Adjuvant Arthritis Assay
# During the development of adjuvant arthritis, the rats lose body weight, the thymus gland involutes and the adrenal gland weight increases.
# Female Lewis rats (purchased from Charles River, Wilmington, MA) were sorted into groups of ten in the weight range 160-199 g. The rats were sensitized to Mycobacterium butyricum (Difco) by the subplantar injection of 0.1 ml light mineral oil (Lubinol, Purepac Pharmaceutical Co., Elizabeth, NJ) containing 0.5 mg of the Mycobacterium into the left hindpaw. The Mycobacterium suspension was prepared by grinding in a glass mortar followed by the addition of the appropriate volume of light mineral oil. The suspension was transferred to a glass vial and stirred for 15 minutes on a magnetic stirrer to obtain a uniform suspension. After sensitization the rats were returned to metronic wire-bottomed cages and allowed food and water ad libitum with the food placed on the bottom of the cages for easy access. […] Rats received compound daily perorally as a suspension in 0.25% agar starting on the day of sensitization. Disease was quantitated by measuring the volume of the noninjected hindpaw by mercury displacement on days 0, 14 and 21. On day 21 (at the termination of the experiment) x-rays of the noninjected hindpaw were taken using a Phillips dental x-ray machine. Total body weight was determined on days 0 and 21 and at the termination of the experiment the thymus was removed and weighed. The statistical significance of the data was determined using Students t test.
# [3] = test system: gastric acid secretion / gastric cytoprotection; details: S. Szabo et al., Experimentia, 38, 254, 1982; cited from earlier work
# [4] = Platelet, po, 3 h, Table 2, 30 mg/kg p.o.
compound,measurement,setting,value
"CC(=O)Oc1ccccc1C(=O)O [Aspirin, reference compound]",% Rats Exhibiting Analgesia,"PAF-induced hyperalgesia; Table 2, 100 mg/kg p.o.",10%
"CC(C)Cc1ccc(C(C)C(=O)O)cc1 (stereo not shown) [Ibuprofen, reference compound]",ED50,PBQ-induced writhing,9 mg/kg
same,responders at 30 mg/kg,PAF-induced hyperalgesia; [4],10%
same,Effect in PAF-induced hyperalgesia assay,PAF-induced hyperalgesia; rat,completely ineffective
"COc1ccc2cc([C@H](C)C(=O)O)ccc2c1 [Naproxen, reference compound]",% Rats Exhibiting Analgesia,"PAF-induced hyperalgesia; Table 2, 30 mg/kg p.o.",10%
"COc1ccc2c(c1)c(CC(=O)O)c(C)n2C(=O)c1ccc(Cl)cc1 [Indomethacin, reference compound]",No. Gastric Lesions,[1]; indomethacin alone 10.0 mg/kg P.O.,12.6 ± 4.4
same,% Rats Exhibiting Analgesia,"PAF-induced hyperalgesia; Table 2, 10 mg/kg p.o.",10%
same,Effect in PAF-induced hyperalgesia assay,PAF-induced hyperalgesia; rat,completely ineffective
same,% Inhibition Foot Swelling-Day 14,[2]; 1.0 mg/kg/day P.O.,87%
same,% Inhibition Foot Swelling-Day 21,[2]; 1.0 mg/kg/day P.O.,88%
same,Adrenal Weight,[2]; 1.0 mg/kg/day P.O.,82.7 ± 2.8 mg
same,Change Body Weight 0-21 days,[2]; 1.0 mg/kg/day P.O.,0.7 ± 3.4 gm
same,Foot Swelling-Day 21,[2]; 1.0 mg/kg/day P.O.,190 ± 38
same,Thymus Weight,[2]; 1.0 mg/kg/day P.O.,359.6 ± 17.9 mg
same,Bone/Cartilage Destruction Score,[2]; 1.0 mg/kg/day P.O.,0.1
same,"Protection from bone/cartilage (hard tissue) destruction, X-ray",[2],virtually complete protection from hard tissue destruction
"CC1=C(CC(=O)O)c2cc(F)ccc2/C1=C\c1ccc([S+](C)[O-])cc1 (stereo not shown) [Sulindac, reference compound]",responders at 30 mg/kg,PAF-induced hyperalgesia; [4],10%
"CN1C(C(=O)Nc2ccccn2)=C(O)c2ccccc2S1(=O)=O [Piroxicam, reference compound]",ED50,PBQ-induced writhing,2 mg/kg
same,responders at 30 mg/kg,PAF-induced hyperalgesia; [4],0%
same,Effect in PAF-induced hyperalgesia assay,PAF-induced hyperalgesia; rat,completely ineffective
CCCCC[C@H](O)/C=C/[C@@H]1[C@@H](C/C=C\CCCC(=O)O)[C@H](O)C[C@H]1O [protaglandin F2B],Gastric cytoprotection,[3],does induce gastric cytoprotection
same,Inhibition of gastric acid secretion,[3],does not inhibit gastric acid secretion
"CC(C(=O)O)c1ccc2oc(-c3ccc(Cl)cc3)nc2c1 (stereo not shown) [Benoxaprofen, reference compound]",responders at 30 mg/kg,PAF-induced hyperalgesia; [4],10%
same,Effect in PAF-induced hyperalgesia assay,PAF-induced hyperalgesia; rat,completely ineffective
"O=C(NC=C(c1ccccc1)c1cccs1)c1sc2ccc(C(F)(F)F)cc2c1O [Compound A, 3-hydroxy-5-trifluoromethyl-N-[2-phenyl-2-(2-thienyl)]-benzo[b]thiophene-2-carboxamide]",% Inhibition of Lesions,[1]; 0.1 mg/kg P.O.,47%
same,No. Gastric Lesions,"[1]; 0.1 mg/kg P.O., indomethacin-induced (10 mg/kg)",6.7 ± 4.1
same,% Inhibition of Lesions,[1]; 0.3 mg/kg P.O.,60%
same,No. Gastric Lesions,"[1]; 0.3 mg/kg P.O., indomethacin-induced (10 mg/kg)",5.0 ± 3.1
same,% Inhibition of Lesions,[1]; 1.0 mg/kg P.O.,52%
same,No. Gastric Lesions,"[1]; 1.0 mg/kg P.O., indomethacin-induced (10 mg/kg)",6.1 ± 5.5
same,% Inhibition of Lesions,[1]; 10.0 mg/kg P.O.,81%
same,No. Gastric Lesions,"[1]; 10.0 mg/kg P.O., indomethacin-induced (10 mg/kg)",2.4 ± 1.1
same,ED50,PBQ-induced writhing,1 mg/kg
same,Analgesic activity compared with standard drugs,"PBQ-induced writhing; mouse, PBQ writhing, p.o.",equivalent to piroxicam and greater than ibuprofen
same,% Inhibition,"PBQ-induced writhing; mouse, 0.1 mg/kg p.o. 1 hr before PBQ",9 ± 3%
same,% Inhibition,"PBQ-induced writhing; mouse, 0.3 mg/kg p.o. 1 hr before PBQ",10 ± 5%
same,% Inhibition,"PBQ-induced writhing; mouse, 1.0 mg/kg p.o. 1 hr before PBQ",39 ± 13%
same,% Inhibition,"PBQ-induced writhing; mouse, 3.0 mg/kg p.o. 1 hr before PBQ",78 ± 7%
same,ED50,"PAF-induced hyperalgesia; Platelet, po, 3 h, rat, dose required to raise VT to greater than 200% of vehicle-treated control in 50% of animals, confidence limits 0.11-0.3",0.19 mg/kg
same,% Rats Exhibiting Analgesia,"PAF-induced hyperalgesia; Table 2, 0.1 mg/kg p.o.",50%
same,Vocalization Threshold,"PAF-induced hyperalgesia; rat, 0.001 mg/kg p.o. 30 min before PAF",10.2 mmHg
same,% Analgesia,"PAF-induced hyperalgesia; rat, 0.001 mg/kg p.o.",10%
same,Vocalization Threshold,"PAF-induced hyperalgesia; rat, 0.01 mg/kg p.o. 30 min before PAF",13.3 mmHg
same,% Analgesia,"PAF-induced hyperalgesia; rat, 0.01 mg/kg p.o.",25%
same,Vocalization Threshold,"PAF-induced hyperalgesia; rat, 0.03 mg/kg p.o. 30 min before PAF",13.0 mmHg
same,% Analgesia,"PAF-induced hyperalgesia; rat, 0.03 mg/kg p.o.",30%
same,Vocalization Threshold,"PAF-induced hyperalgesia; rat, 0.1 mg/kg p.o. 30 min before PAF",16.9 mmHg
same,% Analgesia,"PAF-induced hyperalgesia; rat, 0.1 mg/kg p.o.",50%
same,Vocalization Threshold,"PAF-induced hyperalgesia; rat, 0.3 mg/kg p.o. 30 min before PAF",17.6 mmHg
same,% Analgesia,"PAF-induced hyperalgesia; rat, 0.3 mg/kg p.o.",50%
same,Vocalization Threshold,"PAF-induced hyperalgesia; rat, 1.0 mg/kg p.o. 30 min before PAF",20.1 mmHg
same,% Analgesia,"PAF-induced hyperalgesia; rat, 1.0 mg/kg p.o.",67%
same,Vocalization Threshold,"PAF-induced hyperalgesia; rat, 3.0 mg/kg p.o. 30 min before PAF",18.3 mmHg
same,% Analgesia,"PAF-induced hyperalgesia; rat, 3.0 mg/kg p.o.",70%
same,% Inhibition Foot Swelling-Day 14,[2]; 3.0 mg/kg/day P.O.,56%
same,% Inhibition Foot Swelling-Day 21,[2]; 3.0 mg/kg/day P.O.,43%
same,Adrenal Weight,[2]; 3.0 mg/kg/day P.O.,74.6 ± 3.3 mg
same,Change Body Weight 0-21 days,[2]; 3.0 mg/kg/day P.O.,-14.7 ± 3.2 gm
same,Foot Swelling-Day 14,[2]; 3.0 mg/kg/day P.O.,449 ± 83
same,Foot Swelling-Day 21,[2]; 3.0 mg/kg/day P.O.,921 ± 125
same,Thymus Weight,[2]; 3.0 mg/kg/day P.O.,161.0 ± 17.7 mg
same,Bone/Cartilage Destruction Score,[2]; 3.0 mg/kg/day P.O.,2.6
same,Effect on thymus weight loss,[2]; 10 mg/kg/day,inhibited the loss in weight of the thymus
same,% Inhibition Foot Swelling-Day 14,[2]; 10.0 mg/kg/day P.O.,73%
same,% Inhibition Foot Swelling-Day 21,[2]; 10.0 mg/kg/day P.O.,66%
same,Adrenal Weight,[2]; 10.0 mg/kg/day P.O.,91.8 ± 2.7 mg
same,Change Body Weight 0-21 days,[2]; 10.0 mg/kg/day P.O.,-12.2 ± 2.9 gm
same,Foot Swelling-Day 14,[2]; 10.0 mg/kg/day P.O.,279 ± 39
same,Foot Swelling-Day 21,[2]; 10.0 mg/kg/day P.O.,554 ± 67
same,Thymus Weight,[2]; 10.0 mg/kg/day P.O.,241.5 ± 17.1 mg
same,Bone/Cartilage Destruction Score,[2]; 10.0 mg/kg/day P.O.,1.1
same,Effect on body weight loss,[2]; both dose levels (3.0 and 10 mg/kg/day),significantly inhibited body weight loss
same,Inhibition of swelling of the noninjected hindpaw,[2]; chronic (21 days),marked inhibition of swelling of the noninjected hindpaw
same,"Protection from bone/cartilage (hard tissue) destruction, X-ray",[2],protection of the bone and cartilage destruction was only seen at the 10 mg/kg day dose level
same,ED50,"[2]; po, 336 h, rat, p.o., swelling of noninjected hindpaw, day 14",3 mg/kg
"O=C(O)c1cc(-c2ccc(F)cc2F)ccc1O [Diflunisal, reference compound]",responders at 30 mg/kg,PAF-induced hyperalgesia; [4],10%
